In article PMC7782499, “Progerinin, an optimized progerin-lamin A binding inhibitor, ameliorates premature senescence phenotypes of Hutchinson-Gilford progeria syndrome” (Communications Biology, 2021):
Values joined by “and” are separate entries in the source; they are usually repeats but may differ in a detail not shown here. Equal entries are not always repeated.

What was measured:
[1] = target: T1, progerin (Mus musculus, UniProt P48678, DEL608-657); experiment: Western blot of progerin and H3K9me3 in tissue samples (lung, liver, kidney); format: in vivo; conditions: for H3K9me3 intensity / Progerin intensity: D011-treated LmnaG609G/+ mice
T1 construct: Lamin A/C and progerin amounts in tissue samples including lung, liver, and kidney; from tissue; host or cells: lung, liver and kidney of Lmna G609G/+ mice
T1 sequence (P48678 with tags, fused parts or gaps DEL608-657): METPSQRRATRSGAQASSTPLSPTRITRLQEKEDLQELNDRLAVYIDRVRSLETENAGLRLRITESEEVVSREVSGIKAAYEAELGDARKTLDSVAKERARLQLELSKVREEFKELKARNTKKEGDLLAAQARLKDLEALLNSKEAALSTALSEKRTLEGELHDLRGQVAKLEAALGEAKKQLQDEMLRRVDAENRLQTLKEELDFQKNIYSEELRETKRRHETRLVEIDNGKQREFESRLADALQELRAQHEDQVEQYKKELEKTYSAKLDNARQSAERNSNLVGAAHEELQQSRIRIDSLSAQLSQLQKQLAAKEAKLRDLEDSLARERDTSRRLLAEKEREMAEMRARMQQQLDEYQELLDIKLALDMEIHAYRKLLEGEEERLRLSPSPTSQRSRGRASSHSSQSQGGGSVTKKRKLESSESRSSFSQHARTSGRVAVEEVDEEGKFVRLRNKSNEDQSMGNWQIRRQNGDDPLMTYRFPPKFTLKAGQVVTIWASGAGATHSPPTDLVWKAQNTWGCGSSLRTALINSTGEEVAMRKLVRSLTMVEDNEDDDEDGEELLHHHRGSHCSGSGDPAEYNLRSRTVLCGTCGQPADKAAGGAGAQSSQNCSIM
Text: Fig. 4 Oral administration of SLC-D011 suppresses premature aging features. A Gross morphology of SLC-D011-treated (D011) mice at 8 weeks old. Body size of treated mouse was apparently larger than that of the untreated control (Con) mouse. B Oral administration of SLC-D011 increases body weights of Lmna^G609G/G609G mice. Compared with untreated control group, body weight of treated mouse was increased by ~35%, *p < 0.05. C Oral administration of SLC-D011 extends the life span of Lmna^G609G/G609G mouse. SLC-D011 in monoolein-based solution was treated by oral gavage (50 mg/kg, daily) from 5 weeks old. […] E Grip test of Lmna^G609G/+ mice at 41-week-old was performed after administration of SLC-D011 for 6 weeks. The test was repeated 10 times for each mouse (n > 4), **p < 0.001. Data are presented as mean ± SD. F Electrocardiographic analysis of Lmna^G609G/+ mice (untreated: n = 4; SLC-D011: n = 4) and Lmna^+/+ mice (n = 3) after treatment with SLC-D011 for 6 weeks (unpaired t test). Heart rate is shown as beats per minute (bpm). G Dental abnormalities in Lmna^G609G/+ mice (untreated: n = 4; SLC-D011: n = 5) and Lmna^+/+ mice (n = 4). […] Lower incisors of Lmna^G609G transgenic mice grow toward the palate because of malocclusion. Oral administration of SLC-D011 for 6 weeks alleviates dental abnormalities. H Anti-aging effects of single treatment of SLC-D011 or lonafarnib were measured in HGPS patients-derived cells (AG11513, AG03199, AG11498, and AG03198, Coriell Cell Repositories). Single treatment of SLC-D011, compared to lonafarnib, reduced the expression of progerin but induced the expression of H3K9me3 and cyclin B1 in HGPS cells more effectively. HGPS patients-derived cells were treated with SLC-D011 (500 nM) or lonafarnib (500 nM) for 3 days. I Scheme of interaction between lamin A and progerin. SLC-D011 interrupts the interaction between lamin A and progerin through direct binding to the C-terminal region of progerin. “Con” and “untreated” mean vehicle (monoolein-based solution)-treated mouse group or vehicle (DMSO)-treated cells. TEXT PRINTED IN THE PICTURE: (C) D011: Kaplan-Meier survival curve in Lmna^G609G/G609G: Ave=25.2; Kaplan-Meier survival curve in Lmna^G609G/G609G: Max=26 DOUBTS OF THE COPYIST ABOUT THIS PICTURE: Panel C: Ave=25.2 / Max=26 are assigned to D011 only because they are printed beside the solid curve. No unit is printed with them; the x axis reads Age (weeks). / Panel C: Ave=16.8 / Max=18 are printed beside the dashed curve of the control (Con). They are left out because Con is not a substance.
Lamin A/C and progerin amounts in tissue samples including lung, liver, and kidney analysis of two Lmna^+/+, four untreated Lmna^G609G/+, and four D011-treated Lmna^G609G/+ mice were evaluated by western blotting. Proteins were extracted with RIPA lysis buffer supplemented with protease inhibitors. Tissues were sonicated and centrifuged at 15,000 rpm for 15 min at 4 °C. Protein concentration was determined by Coomassie-blue staining. Cellular lysates in SDS-containing sample buffer were inactivated by heating at 98 °C for 7 min. Proteins were loaded onto 8% SDS-PAGE gels and transferred to PVDF membranes. These membranes were blocked with 3% skimmed milk in TBS-T buffer for 1 h and incubated with primary antibodies including mouse monoclonal anti-progerin (1:100; sc-81611; Santa Cruz Biotechnology), mouse monoclonal anti-lamin A/C (1:500; MANLAC1; Developmental Studies Hybridoma Bank), and rabbit polyclonal anti-H3K9me3 (1;2000; Ab8898; Abcam) at 4°C overnight. Blots were then incubated with 1:10,000 goat anti-mouse (Pierce, Thermo Fisher Scientific) or 1:10,000 goat anti-rabbit (Pierce, Thermo Fisher Scientific) IgG (HRP conjugated) in 1% skimmed milk and washed with TBS-T buffer. Bands were developed using and Intron ECL detection system and quantified using Image J (National Institute of Health, NIH).
Fig. S10. […]

[2] = target: CYP2C19 (Homo sapiens, UniProt P33261); experiment: CYP inhibition, CYP2C19; format: in vitro ADME
Method: For PK analysis, 5 mg/kg of JH4 in 10% DMSO, 5% […] solution were intravenously injected and 10 mg/kg of JH4 in 10% NMP and 90% PEG400 solution were orally delivered. At pre-set time-points, blood concentration of JH4 was determined by LC-MS/MS analysis[22],[23]. Other chemicals were also tested using similar protocol. In vitro ADME studies (plasma protein binding, CYP inhibition, microsomal stability, plasma stability, and hERG inhibition) were performed by New Drug Development Center (Daegu, Korea) using standard protocols[24],[25].

[3] = Lmna G609G/+ mice, oral 50 mg/kg daily for 8 weeks

Sequence of CYP2C19 (P33261 whole entry): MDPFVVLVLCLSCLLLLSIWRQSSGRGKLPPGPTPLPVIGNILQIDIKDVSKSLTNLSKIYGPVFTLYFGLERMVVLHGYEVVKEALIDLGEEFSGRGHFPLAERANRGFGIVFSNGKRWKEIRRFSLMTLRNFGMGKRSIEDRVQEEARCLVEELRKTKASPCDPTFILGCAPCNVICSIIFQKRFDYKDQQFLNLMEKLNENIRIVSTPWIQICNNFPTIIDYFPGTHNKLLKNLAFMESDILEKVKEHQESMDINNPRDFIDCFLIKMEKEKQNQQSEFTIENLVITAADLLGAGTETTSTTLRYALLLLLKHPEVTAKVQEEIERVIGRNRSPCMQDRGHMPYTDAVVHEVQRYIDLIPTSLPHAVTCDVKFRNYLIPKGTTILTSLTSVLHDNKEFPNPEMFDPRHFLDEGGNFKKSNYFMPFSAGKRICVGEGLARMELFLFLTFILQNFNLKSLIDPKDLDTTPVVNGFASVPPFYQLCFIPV

## CC1(C)Oc2cc3oc(=O)ccc3cc2C[C@@H]1OC/C=C/c1ccccc1 [SLC-D011]
[1]; Kidney, Ave
  H3K9me3 intensity: 6.21 AU and 9.731 AU
  Progerin intensity: 4.42 AU and 7.581 AU
[1]; Kidney, individual replicate
  H3K9me3 intensity: 7.144 AU and 5.202 AU and 6.284 AU and 10.9311 AU and 8.4105 AU and 9.851 AU
  Progerin intensity: 5.843 AU and 4.429 AU and 2.988 AU and 9.2 AU and 12.7266 AU and 0.8173 AU
[1]; Liver, Ave
  H3K9me3 intensity: 4.595 AU and 7.491 AU
[1]; Liver, individual replicate
  H3K9me3 intensity: 4.833 AU and 4.0316 AU and 4.921 AU and 8.228 AU and 7.116 AU and 7.128 AU
  Progerin intensity: 1.2695 AU and 1.954 AU and 0.8023 AU and 0.5773 AU and 0.1521 AU and 0.4975 AU
[1]; [3]
  H3K9me3 level in tissues: increase of H3K9me3
  Progerin level in tissues: Obvious reduction of progerin
[1]; Lung, Ave
  Progerin intensity: 1.397 AU and 0.9832 AU
[1]; Lung, individual replicate
  H3K9me3 intensity: 2.3231 AU and 2.511 AU and 2.358 AU and 5.884 AU and 5.376 AU and 5.841 AU
  Progerin intensity: 2.376 AU and 1.606 AU and 0.2082 AU and 2.142 AU and 0.6098 AU and 0.1984 AU
[2]
  CYP inhibition: 28.8
